Source: the supplement of paper PMC11451515

Test system: NOMO1
Assay: cell viability relative to DMSO control; higher = less cytotoxic
Conditions: 48 h
In short: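 Library compounds in DMSO were pin-dosed in an 11-point threefold series (47 μM to 0.79 nM) onto leukemia cells in 1536-well plates (5 μl). Plates held 500 cells/well of NOMO1 or SEM or 1000 cells/well of P12-Ichikawa, each adapted for at least four passages in each medium. Luminescence was read with CellTiter-Glo One after 48 h at 37°C. Viability means the per-plate percentage relative to DMSO wells, using cell-free wells as background.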

[1] = HPLM + 10% dialyzed FBS, 0.000781 µM
[2] = HPLM + 10% dialyzed FBS, 0.00234 µM
[3] = HPLM + 10% dialyzed FBS, 0.00702 µM
[4] = HPLM + 10% dialyzed FBS, 0.0211 µM
[5] = HPLM + 10% dialyzed FBS, 0.0632 µM
[6] = HPLM + 10% dialyzed FBS, 0.19 µM
[7] = HPLM + 10% dialyzed FBS, 0.569 µM
[8] = HPLM + 10% dialyzed FBS, 1.71 µM
[9] = HPLM + 10% dialyzed FBS, 5.12 µM
[10] = HPLM + 10% dialyzed FBS, 15.4 µM
[11] = HPLM + 10% dialyzed FBS, 46.1 µM
[12] = RPMI 5 mM glucose + 10% FBS, 0.000781 µM
[13] = RPMI 5 mM glucose + 10% FBS, 0.00234 µM
[14] = RPMI 5 mM glucose + 10% FBS, 0.00702 µM
[15] = RPMI 5 mM glucose + 10% FBS, 0.0211 µM
[16] = RPMI 5 mM glucose + 10% FBS, 0.0632 µM
[17] = RPMI 5 mM glucose + 10% FBS, 0.19 µM
[18] = RPMI 5 mM glucose + 10% FBS, 0.569 µM
[19] = RPMI 5 mM glucose + 10% FBS, 1.71 µM
[20] = RPMI 5 mM glucose + 10% FBS, 5.12 µM
[21] = RPMI 5 mM glucose + 10% FBS, 15.4 µM
[22] = RPMI 5 mM glucose + 10% FBS, 46.1 µM
[23] = RPMI 5 mM glucose + 10% dialyzed FBS, 0.000781 µM
[24] = RPMI 5 mM glucose + 10% dialyzed FBS, 0.00234 µM
[25] = RPMI 5 mM glucose + 10% dialyzed FBS, 0.00702 µM
[26] = RPMI 5 mM glucose + 10% dialyzed FBS, 0.0211 µM
[27] = RPMI 5 mM glucose + 10% dialyzed FBS, 0.0632 µM
[28] = RPMI 5 mM glucose + 10% dialyzed FBS, 0.19 µM
[29] = RPMI 5 mM glucose + 10% dialyzed FBS, 0.569 µM
[30] = RPMI 5 mM glucose + 10% dialyzed FBS, 1.71 µM
[31] = RPMI 5 mM glucose + 10% dialyzed FBS, 5.12 µM
[32] = RPMI 5 mM glucose + 10% dialyzed FBS, 15.4 µM
[33] = RPMI 5 mM glucose + 10% dialyzed FBS, 46.1 µM

| SMILES | cell viability [1] [%] | cell viability [2] [%] | cell viability [3] [%] | cell viability [4] [%] | cell viability [5] [%] | cell viability [6] [%] | cell viability [7] [%] | cell viability [8] [%] | cell viability [9] [%] | cell viability [10] [%] | cell viability [11] [%] | cell viability [12] [%] | cell viability [13] [%] | cell viability [14] [%] | cell viability [15] [%] | cell viability [16] [%] | cell viability [17] [%] | cell viability [18] [%] | cell viability [19] [%] | cell viability [20] [%] | cell viability [21] [%] | cell viability [22] [%] | cell viability [23] [%] | cell viability [24] [%] | cell viability [25] [%] | cell viability [26] [%] | cell viability [27] [%] | cell viability [28] [%] | cell viability [29] [%] | cell viability [30] [%] | cell viability [31] [%] | cell viability [32] [%] | cell viability [33] [%] |
| --- | --- | --- | --- | --- | --- | --- | --- | --- | --- | --- | --- | --- | --- | --- | --- | --- | --- | --- | --- | --- | --- | --- | --- | --- | --- | --- | --- | --- | --- | --- | --- | --- | --- |
| CN1CCCN=C1/C=C/c1cccs1.O=C(O)c1cc2ccccc2c(Cc2c(O)c(C(=O)O)cc3ccccc23)c1O | 114 | 111 | 126 | 108 | 122 | 112 | 123 | 120 | 104 | 34.1 | 17.2 | 115 | 121 | 129 | 112 | 114 | 111 | 117 | 137 | 109 | 92.7 | 29.3 | 120 | 127 | 114 | 104 | 110 | 110 | 119 | 110 | 110 | 64.4 | 28.9 |
| CCn1c(-c2nonc2N)nc2cnc(Oc3cccc(NC(=O)c4ccc(OCCN5CCOCC5)cc4)c3)cc21 | 90.6 | 123 | 105 | 117 | 117 | 104 | 115 | 110 | 94.6 | 95.3 | 83.2 | 92.8 | 98.6 | 111 | 109 | 110 | 95.8 | 87.4 | 93.8 | 82.4 | 74.1 | 64 | 88.9 | 107 | 110 | 102 | 115 | 103 | 89.9 | 87.6 | 79.1 | 71.2 | 74.4 |
| COc1cc2nccc(Oc3ccc(NC(=O)NC4CC4)c(Cl)c3)c2cc1C(N)=O | 129 | 120 | 111 | 98.7 | 145 | 100 | 114 | 113 | 111 | 78.1 | 17.2 | – | – | – | – | – | – | – | – | – | – | – | – | – | – | – | – | – | – | – | – | – | – |
| Cc1cn([C@@H]2O[C@H](CO)[C@@H](O)[C@@H]2F)c(=O)[nH]c1=O | – | – | – | – | – | – | – | – | – | – | – | 93.5 | 108 | 102 | 117 | 114 | 121 | 110 | 115 | 109 | 113 | 29 | 86.1 | 120 | 114 | 108 | 123 | 119 | 127 | 120 | 103 | 126 | 22.4 |
| C[S+](=O)([O-])N1CCc2c(-c3cnc(N)nc3)nc(N3CCOCC3)nc21 | 105 | 102 | 112 | 118 | 104 | 107 | 86.6 | 76.4 | 77.9 | 76.2 | 74.4 | 107 | 104 | 99.3 | 110 | 102 | 99.5 | 101 | 88.9 | 95 | 81.9 | 74 | 99 | 103 | 99.6 | 97.7 | 93.6 | 96.9 | 77.3 | 69.4 | 73.7 | 69.7 | 56.8 |
| C[S+]([O-])(=O)C1=CC=C(C=C1)C/2=C(/C(=O)OC2)C3=CC=CC=C3 | – | – | – | – | – | – | – | – | – | – | – | 106 | 110 | 118 | 109 | 120 | 115 | 118 | 119 | 114 | 108 | 123 | 107 | 118 | 106 | 111 | 121 | 118 | 123 | 120 | 108 | 131 | 129 |
| COC(=O)[C@@H]1[C@H]2C[C@H]3c4[nH]c5ccccc5c4CCN3C[C@@H]2CC[C@@H]1O | 120 | 127 | 122 | 131 | 132 | 128 | 108 | 41.2 | 39.8 | 44.5 | 35.6 | – | – | – | – | – | – | – | – | – | – | – | – | – | – | – | – | – | – | – | – | – | – |
| Cc1cc(C(C)(C)C)c(O)c(C)c1CC1=NCCN1 | 90.1 | 99.5 | 103 | 103 | 101 | 108 | 105 | 107 | 83.8 | 55 | 43.4 | 91.6 | 97.3 | 99.1 | 90 | 86.2 | 105 | 90.8 | 97.8 | 88.9 | 56.4 | 43.2 | 78 | 85.6 | 91.8 | 97.4 | 100 | 100 | 97 | 93.2 | 101 | 61.2 | 54.1 |
| C=C(C)[C@H]1Cc2c(ccc3c2O[C@@H]2COc4cc(OC)c(OC)cc4[C@@H]2C3=O)O1 | 103 | 102 | 120 | 110 | 124 | 116 | 107 | 89.2 | 52.6 | 37.3 | 28.8 | 105 | 118 | 105 | 106 | 109 | 102 | 102 | 102 | 63.8 | 23.9 | 20.4 | 99.3 | 101 | 98.4 | 99.8 | 104 | 104 | 87.8 | 98.7 | 81.5 | 29.5 | 24.1 |
